According to patent US10086039B2, “Lamin A, an activator of longevity/anti-aging SIRT1 protein” (THE UNIVERSITY OF HONG KONG, priority 2012, dated 2018):

Key:
NM-associated SIRT1 = assay: NM association of SIRT1 in BMSCs (subcellular fractionation, Western blotting); assay type: cell-based, mouse; settings: wild-type and Zmpste24−/− BMSCs, different concentrations, compared to untreated controls
Description: Cells were fractionated as described (Mendez and Stillman, 2000). Briefly, the cells were suspended in 100 μl ice-cold buffer A (10 mM HEPES, pH 7.9, 10 mM KCl, 1.5 mM MgCl2, 0.34 M sucrose, 10% glycerol, 1 mM DTT, protease inhibitors). After the addition of 0.1% Triton X-100, the cell suspension was mixed gently, incubated on ice for 5 min and centrifuged at 1300×g at 4° C. for 4 min. The supernatant (S1) was transferred to a new tube and clarified by high-speed centrifugation (12000×g, 10 min, 4° C.). The remaining nuclei pellet (P1) was washed once with 100 μl buffer A and then resuspended in 100 μl buffer A supplemented with 1 mM CaCl2 and 2 units of micrococcal nuclease, and incubated at 37° C. for 15 min. The reaction was stopped by adding 1 mM EGTA and the suspension was then centrifuged at 1300×g at 4° C. for 4 min. The resultant pellet was resuspended in 100 μl of buffer B (3 mM EDTA, 0.2 mM EGTA, 1 mM DTT) and centrifuged at 1700×g at 4° C. for 4 min. […]
Western blotting was performed as described previously (Liu et al., 2005). Relative band intensity was measured by IMAGE J® and normalized to corresponding wild-type or untreated controls as indicated. […]

[1] = biological target: T1, rhSIRT1 binding to rhLamin A (Homo sapiens, UniProt Q96EB6); assay: Pull-down of rhSIRT1 with rhLamin A in test tube (anti-lamin A immunoprecipitation); settings: in the test tube, co-immunoprecipitation
T1 construct: purchased Diatheva, Italy (rhLamin A)
T1 sequence (Q96EB6 1-747): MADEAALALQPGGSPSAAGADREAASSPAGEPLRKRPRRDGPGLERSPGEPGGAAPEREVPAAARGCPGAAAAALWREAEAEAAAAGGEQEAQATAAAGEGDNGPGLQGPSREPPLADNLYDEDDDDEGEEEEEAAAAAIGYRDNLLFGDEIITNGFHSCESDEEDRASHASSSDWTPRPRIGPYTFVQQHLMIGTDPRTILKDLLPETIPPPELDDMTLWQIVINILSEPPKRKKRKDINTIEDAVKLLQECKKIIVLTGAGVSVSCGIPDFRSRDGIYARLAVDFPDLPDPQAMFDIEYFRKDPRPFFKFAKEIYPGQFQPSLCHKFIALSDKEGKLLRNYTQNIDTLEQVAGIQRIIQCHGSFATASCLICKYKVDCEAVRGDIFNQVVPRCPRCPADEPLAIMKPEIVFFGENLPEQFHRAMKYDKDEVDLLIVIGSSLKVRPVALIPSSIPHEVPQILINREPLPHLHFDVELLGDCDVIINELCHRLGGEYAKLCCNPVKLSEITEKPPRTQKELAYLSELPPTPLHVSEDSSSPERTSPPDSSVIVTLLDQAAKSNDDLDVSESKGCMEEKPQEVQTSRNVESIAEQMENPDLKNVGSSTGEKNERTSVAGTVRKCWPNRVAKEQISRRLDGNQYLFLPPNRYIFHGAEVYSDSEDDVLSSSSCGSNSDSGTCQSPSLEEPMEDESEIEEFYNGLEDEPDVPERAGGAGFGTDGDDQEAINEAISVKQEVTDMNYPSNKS
T1 sequence (P02545 1-664 partner): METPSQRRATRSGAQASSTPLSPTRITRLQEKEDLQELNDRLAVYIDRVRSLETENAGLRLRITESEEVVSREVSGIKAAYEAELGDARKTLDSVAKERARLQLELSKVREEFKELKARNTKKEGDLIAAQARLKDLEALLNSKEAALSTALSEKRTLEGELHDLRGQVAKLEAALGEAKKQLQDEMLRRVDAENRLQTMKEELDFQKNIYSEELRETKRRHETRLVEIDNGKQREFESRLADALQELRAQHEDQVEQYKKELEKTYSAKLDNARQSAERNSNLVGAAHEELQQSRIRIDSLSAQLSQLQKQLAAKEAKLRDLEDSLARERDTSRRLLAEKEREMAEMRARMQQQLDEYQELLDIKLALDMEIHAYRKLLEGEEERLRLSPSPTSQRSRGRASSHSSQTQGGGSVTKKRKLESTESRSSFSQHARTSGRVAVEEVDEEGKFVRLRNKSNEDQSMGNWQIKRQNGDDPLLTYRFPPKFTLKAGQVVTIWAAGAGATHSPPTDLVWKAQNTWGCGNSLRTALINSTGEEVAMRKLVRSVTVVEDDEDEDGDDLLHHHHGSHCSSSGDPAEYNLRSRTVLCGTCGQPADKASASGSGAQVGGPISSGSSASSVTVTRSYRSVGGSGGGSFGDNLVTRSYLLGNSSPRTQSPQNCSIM
Description: For co-immunoprecipitation, cells were lysed into pre-chilled RIPA buffer containing 300 mM or 500 mM NaCl and protease inhibitors. Primary antibodies or appropriate control IgGs were added to the lysate and incubated for 2 h on a rocking platform at 4° C. before Agarose beads were added and incubated O/N. The beads were washed twice with RIPA buffer, resuspended into Laemmli buffer and boiled, and protein suspension was collected by centrifugation and stored for further analysis.
Consistently, ectopic EGFP-SIRT1 and DsRed-lamin A co-existed in the nuclear interior (FIG. 1D). This interaction seems specific to nuclear SIRT1 as neither cytoplasmic SIRT1 nor mitochondrial SIRT5 was detected in the anti GFP-lamin A immunoprecipitates (FIG. 6C). In addition, SIRT1 physically interacts with lamin A as recombinant human SIRT1 (rhSIRT1) was pulled down by recombinant human lamin A (rhLamin A) in a test tube (FIG. 1E).

Oc1ccc(C=Cc2cc(O)cc(O)c2)cc1 [resveratrol]
NM-associated SIRT1 (NM-associated SIRT1): increased
binding of rhSIRT1 to rhLamin A [1]: enhanced the binding
